Laboratory results from patent publication US7144889B2, “Triarylimidazoles” (Hoffman-La Roche Inc., priority 2003, dated 2006).

Biological target: T1, c-met (Homo sapiens, UniProt P08581)
T1 construct: endogenous in cells; host or cells: HT29 (ATCC HTB-38), human colon adenocarcinoma
Experiment: C-met Autoactivation Kinase Assay (AKA), ELISA type assay on HT29 cell lysate
Format: biochemical
Conditions: phosphorylation of c-met from HT29 lysate, 40 μM ATP
Text: C-met Autoactivation Kinase Assay (AKA)
C-met is a typical tyrosine kinase which is involved in metastasis, proliferation/apoptosis and angiogenesis of tumors. The assay is an ELISA type assay measuring the phosphorylation of c-met using a phospho-tyrosine specific antibody.
Cell lysate of human colon adenocarcinoma HT29 known for its high content of c-met is bound to the wells of a microtiterplate (MTP) via an anti-hHGF receptor antibody (anti-hHGFR). ATP-phosphorylation of c-met is detected in presence or absence of the test compounds by using a phospho-tyrosine mouse IgG and a POD labeled goat anti-mouse IgG detection system. Using the classical POD substrate TMB, an absorption at 450 nm/620 nm is used to calculate enzymatic activity.
Plates: 96-well polystyrene plates (NUNC) streptavidin-coated microtiter plates Cell line/Lysate: HT29 (ATCC HTB-38), human colon adenocarcinoma (confluence: 2.5×10^5 cells/cm^2) are washed with PBS and incubated with Lysis buffer for 10 min on ice. Supernatent is collected and diluted with TBS. Lysate is shockfrozen in liquid nitrogen and stored at −80° C.)
Reagents (all working solutions are kept at 4° C., unless stated otherwise): • anti-hHGFR detection stock solution: 50 μg/ml (R&D Systems, Cat.No. BAF 358) antibody final conc.: 1 μg/ml • p-Tyr (PY99) mouse stock solution: 200 μg/ml (Santa Cruz Biotechnology, monoclonal IgG2b Cat.No. SC-7020) final conc.: 0.2 μg/ml • goat-anti-mouse IgG: 2 ml (BIO RAD, Cat.No. 170–6516) • (H+L)-HRP Conjugate; final conc.: 1:2000 • Blocking Reagent: Roche Diagnostics GmbH, Cat.No.1 112589 for ELISA diluted 1:10 in TBS • ATP: Adenosine-5′-triphosphate, stock solution 10 mM, stock solution 10 mM (Roche Diagnostics GmbH, Cat.No. 127531) final conc.: 40 μM • TBS: Tris-buffered saline, 50 mM TRIS pH 7.5 (Roche Diagnostics GmbH, Cat.No. 708976), 150 mM NaCl (SIGMA, Cat.No. S-3014) • Wash buffer TBS-T: Tris-buffered saline, 50 mM TRIS pH 7.5 150 mM NaCl, containing 0.5% Tween20 • Kinase buffer: Tris-buffered saline, 50 mM TRIS pH 7.5, 100 mM NaCl, 60 mM MgCl2 (SIGMA Chemical Company, Cat.No. M-1028) • Lysis buffer: 50 mM TRIS pH 7.5 containing 1% Nonidet P40 (Roche Diagnostics GmbH, Cat.No.1754599) 0.5 % Deoxycholic acid (SIGMA Chemical Company, Cat.No. D-6750) final conc.: 1 mM 1 mM PMSF stock solution 70 mM (Roche Diagnostics GmbH, Cat.No.837091 40 μl/ml Complete (Roche Diagnostics GmbH, Cat.No. 1836145) Final conc.: 40 μ/ml • TMB: Tetramethylbenzidine (Intergen Company, Cat.No. 91000) • Samples: 10 mM in DMSO (stored at −20° C.), thawed at room temperature Procedure: […]

T1 sequence (P08581 25-1390): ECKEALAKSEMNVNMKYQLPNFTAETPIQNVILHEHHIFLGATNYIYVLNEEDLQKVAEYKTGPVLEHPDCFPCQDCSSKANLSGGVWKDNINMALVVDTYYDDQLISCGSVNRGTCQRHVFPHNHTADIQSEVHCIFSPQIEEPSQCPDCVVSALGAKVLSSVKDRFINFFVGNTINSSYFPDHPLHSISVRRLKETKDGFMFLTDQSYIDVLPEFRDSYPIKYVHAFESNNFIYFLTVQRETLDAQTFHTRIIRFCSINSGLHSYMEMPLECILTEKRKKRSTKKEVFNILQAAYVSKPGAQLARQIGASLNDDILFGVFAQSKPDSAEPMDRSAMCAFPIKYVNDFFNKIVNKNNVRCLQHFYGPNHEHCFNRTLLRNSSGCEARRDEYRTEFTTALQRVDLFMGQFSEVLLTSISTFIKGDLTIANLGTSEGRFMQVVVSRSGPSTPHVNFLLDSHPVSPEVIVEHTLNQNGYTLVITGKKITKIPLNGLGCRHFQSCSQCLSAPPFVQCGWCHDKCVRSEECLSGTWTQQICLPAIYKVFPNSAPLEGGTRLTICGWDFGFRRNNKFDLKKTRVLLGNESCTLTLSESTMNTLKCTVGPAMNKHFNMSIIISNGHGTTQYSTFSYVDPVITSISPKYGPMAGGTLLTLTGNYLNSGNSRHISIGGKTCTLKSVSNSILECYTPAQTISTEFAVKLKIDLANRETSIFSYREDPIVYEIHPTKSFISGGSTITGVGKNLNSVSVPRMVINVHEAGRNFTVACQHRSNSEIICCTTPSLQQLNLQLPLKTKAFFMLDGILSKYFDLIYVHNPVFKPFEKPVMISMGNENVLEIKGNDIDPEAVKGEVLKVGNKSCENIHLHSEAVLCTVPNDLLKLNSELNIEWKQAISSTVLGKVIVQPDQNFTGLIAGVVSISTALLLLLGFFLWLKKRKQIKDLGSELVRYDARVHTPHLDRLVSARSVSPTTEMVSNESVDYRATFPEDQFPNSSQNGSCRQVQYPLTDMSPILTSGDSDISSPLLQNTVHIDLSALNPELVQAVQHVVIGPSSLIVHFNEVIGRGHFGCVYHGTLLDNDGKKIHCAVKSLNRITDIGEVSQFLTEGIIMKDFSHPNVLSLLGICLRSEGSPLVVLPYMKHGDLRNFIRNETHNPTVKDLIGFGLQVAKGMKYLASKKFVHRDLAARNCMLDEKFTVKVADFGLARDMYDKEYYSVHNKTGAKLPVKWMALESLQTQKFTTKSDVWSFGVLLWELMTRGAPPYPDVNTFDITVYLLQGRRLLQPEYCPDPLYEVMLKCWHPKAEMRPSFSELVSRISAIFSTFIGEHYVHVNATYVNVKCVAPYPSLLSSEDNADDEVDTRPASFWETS

| SMILES | IC50 |
| --- | --- |
| OCCCNc1nccc(-c2[nH]c(-c3c(Cl)cc(OCCO)cc3Cl)nc2-c2cccc(OCc3ccccn3)c2)n1 [Example H1, 2-(2,6-dichloro-4-[2-hydroxyethoxy]phenyl)-4-(3-(2-pyridinylmethyloxy)phenyl)-5-(2-[3-hydroxypropylamino]pyrimidin-4-yl)-N-1H-imidazole] | 22 nM |
| OCCCNc1nccc(-c2[nH]c(-c3c(Cl)cc(OCCO)cc3Cl)nc2-c2cccc(OCc3ccncc3)c2)n1 [Example H3, 2-(2,6-dichloro-4-[2-hydroxyethoxy]phenyl)-4-(3-(4-pyridinylmethyloxy)phenyl)-5-(2-[3-hydroxypropylamino]pyrimidin-4-yl)-N-1H-imidazole] | 54 nM |
| OCCCNc1nccc(-c2[nH]c(-c3c(Cl)cc(OCCO)cc3Cl)nc2-c2cccc(OCc3cccnc3)c2)n1 [Example H2, 2-(2,6-dichloro-4-[2-hydroxyethoxy]phenyl)-4-(3-(3-pyridinylmethyloxy)phenyl)-5-(2-[3-hydroxypropylamino]pyrimidin-4-yl)-N-1H-imidazole] | 32 nM |
| OCCCNc1nccc(-c2[nH]c(-c3c(Cl)cncc3Cl)nc2-c2cccc(OCc3ccccc3)c2)n1 [Example H4, 2-(3,5-dichloropyridin-4-yl)-4-(3-benzyloxyphenyl)-5-(2-[3-hydroxypropyl-amino]pyrimidin-4-yl)-N-1H-imidazole] | 23 nM |
